B1: polyphosphate:AMP phosphotransferase (protein, listed as Acinetobacter jobnsonii)
chain: MDTETIASAVLNEEQLSLDLIEAQYALMNTRDQSNAKSLVILVSGIELAGKGEAVKQLREWVDPRFLYVKADPPHLFNLKQPFWQPYTRFVPAEGQIMVWFGNWYGDLLATAMHASKPLDDTLFDEYVSNMRAFEQDLKNNNVDVLKVWFDLSWKSLQKRLDDMDPSEVHWHKLHGLDWRNKKQYDTLQKLRTRFTDDWQIIDGEDEDLRNHNFAQAILTALRHCPEHEKKAALKWQQAPIPDILTQFEVPQAEDANYKSELKKLTKQVADAMRCDDRKVVIAFEGMDAAGKGGAIKRIVKKLDPREYEIHTIAAPEKYELRRPYLWRFWSKLQSDDITIFDRTWYGRVLVERVEGFATEVEWQRAYAEINRFEKNLSSSQTVLIKFWLAIDKDEQAARFKARESTPHKRFKITEEDWRNRDKWDDYLKAAADMFAHTDTSYAPWYIISTNDKQQARIEVLRAILKQLKADRDTD
B2: galactokinase: E. coli galactokinase, partially purified enzyme solution (protein, UniProt P0A6T3 2-382, looked up)
Galactokinase: SLKEKTQSLFANAFGYPATHTIQAPGRVNLIGEHTDYNDGFVLPCAIDYQTVISCAPRDDRKVRVMAADYENQLDEFSLDAPIVAHENYQWANYVRGVVKHLQLRNNSFGGVDMVISGNVPQGAGLSSSASLEVAVGTVLQQLYHLPLDGAQIALNGQEAENQFVGCNCGIMDQLISALGKKDHALLIDCRSLGTKAVSMPKGVAVVIINSNFKRTLVGSEYNTRREQCETGARFFQQPALRDVTIEEFNAVAHELDPIVAKRVRHILTENARTVEAASALEQGDLKRMGELMAESHASMRDDFEITVPQIDTLVEIVKAVIGDKGGVRMTGGGFGGCIVALIPEELVPAVQQAVAEQYEAKTGIKETFYVCKPSQGAGQC

Columns and labels:
[1] = biological target: T1, PAP (polyphosphate:AMP phosphotransferase) (Acinetobacter johnsonii, UniProt Q83XD3); assay: Substrate specificity of PAP: NDP or dNDP produced from NMP or dNMP, measured by HPLC; type: biochemical; conditions: relative to phosphorylation of AMP = 100%; 5 mM NMP or dNMP, polyphosphate 10 mM, 100 mM MgCl2, pH 8.0, 37° C., 10 minutes
T1 construct: the PAP gene codes for the polypeptide (molecular weight: 55.8 kd) comprising 475 amino acids; made in house; host or cells: E. coli JM109 carrying plasmid pPAP2
Description: To 50 mM Tris HCl buffer solution (pH 8.0) containing 100 mM MgCl2, polyphosphate (10 mM calculated in terms of inorganic phosphate), and 5 mM of various NMP or dNMP was added PAP at various concentration, and the solution was incubate at 37° C. for 10 minutes. The reaction was terminated by heat treatment at 100° C. for 1 minute, and the solution after the reaction was subjected to HPLC to measure the amount of the NDP or the dNDP produced. The specific activity of each NMP or dNMP is shown in Table 1 as a relative value in relation to the specific activity of the PAP in the phosphorylation of the AMP, which is assumed 100%.

[2] = biological target: T1, PAP (polyphosphate:AMP phosphotransferase); assay: Synthesis of NDP from NMP with PAP and polyphosphate, HPLC analysis; type: biochemical; conditions: 10 mM NMP, polyphosphate 30 mM, PAP 16 units/ml, 37° C., 30 minutes
[3] = tested on: PAP from Acinetobacter johnsonii; conditions: PAP obtained from Acinetobacter johnsonii, reported as AMP-specific; cited from earlier work
[4] = Adenylate kinase activity measurement (ADP from AMP and ATP, HPLC); type: biochemical; conditions: cell extract; 1 unit = 2 μmole ADP at 37° C. in 1 minute
Description: The unit of the adenylate kinase activity is the one measured and calculated by the procedure as described below. Sample enzyme is added the 50 mM Tris HCl buffer solution (pH 7.8) containing 10 mM magnesium chloride, 10 mM AMP, and 10 mM ATP, and the solution is incubated at 37° C. to promote the reaction, and the reaction is terminated by a 1 minute heating at 100° C. Amount of the ADP in the reaction solution is measured by using HPLC, and the activity of producing 2 μmole of ADP at 37° C. in 1 minute is designated 1 unit.
E. coli adenylate kinase was prepared by the procedure described in the document (Proc. Natl. Acad. Sci. USA, 97, 14168-14171 (2000)). However, the cell extract produced by ultrasonication was used for the enzyme solution, and the specific activity of the adenylate kinase in the enzyme solution was 12.5 units/mg protein.

[5] = PAP activity measurement (ADP produced from AMP and polyphosphate, HPLC); type: biochemical; conditions: partially purified by DEAE TOYOPEARL 650M; 1 unit = 1 μmole ADP at 37° C. in 1 minute
Description: The “unit” used herein is the unit measured under the following conditions, and 1 unit corresponds to the activity of producing 1 μmole of ADP at 37° C. in 1 minute.
Sample enzyme is added to 50 mM Tris HCl buffer solution (pH 7.8) containing 20 mM magnesium chloride, 10 mM AMP, and polyphosphate (30 mM calculated in terms of inorganic phosphate) and the reaction is allowed to proceed by incubating the temperature at 37° C., and the reaction is thereafter terminated by a heat treatment at 100° C. for 1 minute, and amount of ADP in the reaction solution is measured by high performance liquid chromatography (HPLC).
It is to be noted that this productivity corresponds to about 150 times the productivity of the Acinetobacter Johnsonii. PAP was partially purified by fractionating the extract by ion exchange chromatography using DEAE TOYOPEARL 650M (TOSO) (eluent: 50 mM Tris HCl (pH 7.8), concentration gradient of 0 to 0.5M NaCl), and the collected fraction was used for the enzyme sample. The specific activity of the PAP in the collected fraction was 80.5 units/mg protein.

[6] = pH stability of PAP (residual activity); type: physicochemical; conditions: pH in the range of 7 to 9; activity at pH 8 = 100%; 37° C., 10 minutes, 100 mM magnesium chloride
Description: PAP was incubated in either 50 mM maleate or 50 mM Tris HCl buffer solution of various pH at 37° C. for 10 minutes in the presence of 100 mM magnesium chloride to measure the residual activity. The residual activity was measured by allowing the reaction to take place at 37° C. for 10 minutes in the presence of 50 mM Tris buffer solution (pH 8.0), 100 mM magnesium chloride, 5 mM AMP, and polyphosphate (10 mM calculated in terms of inorganic phosphate), and measuring the resulting ADP by HPLC.

Optimal pH of PAP = type: biochemical; conditions: 37° C., 10 minutes, 5 mM AMP, polyphosphate 10 mM, 100 mM magnesium chloride
Description: The reaction was allowed to proceed in either 50 mM maleate or 50 mM Tris HCl buffer solution of various pH at 37° C. for 10 minutes in the presence of 100 mM magnesium chloride, polyphosphate (10 mM calculated in terms of inorganic phosphate), and 5 mM AMP to measure the amount of the ADP produced by HPLC.

[7] = Thermal stability of PAP (residual activity); type: physicochemical; conditions: 10 minutes, pH 8.0, in the presence of the polyphosphate
Description: PAP was incubated for 10 minutes in 50 mM Tris HCl buffer solution (pH 8.0) containing 100 mM magnesium chloride in the presence or absence of polyphosphate (10 mM calculated in terms of inorganic phosphate) in the bath at various temperatures to measure the residual activity by the procedure as described above.

[8] = Galactokinase activity measurement (galactose-1-phosphate produced, sugar analyzer); type: biochemical; conditions: partially purified; 1 unit = 1 μmole galactose-1-phosphate at 37° C. in 1 minute
Description: E. coli strain JM109 having the plasmid pDR540 containing E. coli galactokinase gene (Gene, 20, 231(1982), obtained from Pharmacia) was inoculated in 2xYT medium containing 100 μg/ml ampicillin, and the E. coli was cultivated at 37° C. with shaking. When the cell density reached 4×10^8/ml, IPTG was added to the culture medium to a final concentration of 1 mM, and the incubation was continued at 30° C. for another 5 hours. After completion of the cultivation, the cells were collected by centrifugation and suspended in 30 ml buffer solution (50 mM Tris HCl (pH 7.8), 1 mM EDTA). The cells were lyzed by ultrasonication, and bacterial residue was removed by further centrifugation. The solution collected was subjected to ion exchange chromatography using DEAE Toyopearl 650M (Toso) (eluent: 50 mM Tris HCl (pH 7.8), concentration gradient of 0 to 0.5M NaCl) for fractionation and partial purification of the galactokinase. The thus recovered fraction was used for the enzyme solution of galactokinase. […]
The unit of the glactokinase activity was the one measured and calculated by the procedure as described below. […] Amount of the galactose-1-phosphate in the reaction solution was measured by using a sugar analyzer (Dionex), and the activity of producing 1 μmole of galactose-1-phosphate at 37° C. in 1 minute was designated 1 unit.

Molecule	Specific activity (relative value) [1]	NDP generated [2]	other results
Cc1cn([C@H]2C[C@H](O)[C@@H](COP(=O)(O)O)O2)c(=O)[nH]c1=O [TMP]	0.012%		
Nc1nc2c(ncn2[C@@H]2O[C@H](COP(=O)(O)O)[C@@H](O)[C@H]2O)c(=O)[nH]1 [GMP]	10%	7.16 mM GDP	phosphate-transfer by conventional PAP [3]: some phosphate-transfer
Nc1ccn([C@H]2C[C@H](O)[C@@H](COP(=O)(O)O)O2)c(=O)n1 [dCMP]	0.008%		
Nc1ccn([C@@H]2O[C@H](COP(=O)(O)O)[C@@H](O)[C@H]2O)c(=O)n1 [CMP]	0.09%	0.98 mM CDP	phosphate-transfer by conventional PAP [3]: no phosphotransfer at all
Nc1nc2c(ncn2[C@H]2C[C@H](O)[C@@H](COP(=O)(O)O)O2)c(=O)[nH]1 [dGMP]	2.6%		
O=c1ccn([C@@H]2O[C@H](COP(=O)(O)O)[C@@H](O)[C@H]2O)c(=O)[nH]1 [UMP]	0.13%	0.85 mM UDP	phosphate-transfer by conventional PAP [3]: no phosphotransfer at all
Nc1ncnc2c1ncn2[C@@H]1O[C@H](COP(=O)(O)O)[C@@H](O)[C@H]1O [AMP, adenosine 5′-monophosphate]	100%	6.76 mM ADP	
adenylate kinase: E. coli adenylate kinase, cell extract used as enzyme solution			specific activity of the adenylate kinase in the enzyme solution [4]: 12.5 units/mg protein
Nc1ncnc2c1ncn2[C@H]1C[C@H](O)[C@@H](COP(=O)(O)O)O1 [dAMP]	18%		
B1			specific activity of the PAP in the collected fraction [5]: 80.5 units/mg protein; enzymatic activity (residual) after incubation at various pH [6]: ≥ 80%; optimal pH (Optimal pH of PAP): approximately 8.5; thermal stability: stable up to [7]: approximately 50 °C
B2			specific activity of the galactokinase in the enzyme solution [8]: 6.5 units/mg protein
